Reference: ChEMBL document CHEMBL5233275, “Effect of Flexibility, Lipophilicity, and the Location of Polar Residues on the Passive Membrane Permeability of a Series of Cyclic Decapeptides” (J Med Chem, 2021)
In brackets after ≈: the same amount, converted by molar mass. Where a SMILES comes first, the peptide text is derived from it. [ ]: non-standard residue; d: D form. NMeF = CN[C@@H](Cc1ccccc1)C(=O)O; NMeA = CN[C@@H](C)C(=O)O; dNMeA = CN[C@H](C)C(=O)O; Sar = CNCC(=O)O

Tests used:
Format in all cases: physicochemical
[1] = Decadiene/water partition coefficient, logD of compound at pH 7.4 by HPLC analysis
[2] = Solubility of the compound by high-throughput equilibrium solubility assay
[3] = Octanol/water partition coefficient, logD of compound at pH 7.4 by HPLC analysis

SMILES	logD hydrocarbon water [1]	solubility thermodynamic [2] [µM]	logD [3]
CC(C)C[C@@H]1NC(=O)[C@H](C)N(C)C(=O)[C@H]2CCCN2C(=O)[C@H](CC(C)C)NC(=O)[C@H](C)N(C)C(=O)[C@H](CC(C)C)NC(=O)[C@H](C)N(C)C(=O)[C@H]2CCCN2C(=O)[C@H](CC(C)C)NC(=O)[C@H]([C@@H](C)O)N(C)C1=O	1.7	763 (≈ 776 µg/mL)	–
CC(C)C[C@@H]1NC(=O)[C@H](C)N(C)C(=O)[C@H]2CCCN2C(=O)[C@H](CC(C)C)NC(=O)[C@H](C)N(C)C(=O)[C@H]([C@@H](C)O)NC(=O)[C@H](C)N(C)C(=O)[C@H]2CCCN2C(=O)[C@H](CC(C)C)NC(=O)[C@H](C)N(C)C1=O	0.4	> 1000	2.7
CC(C)C[C@@H]1NC(=O)[C@H](C)N(C)C(=O)[C@H]2CCCN2C(=O)[C@H](CC(C)C)NC(=O)[C@H](C)N(C)C(=O)[C@H](CC(C)C)NC(=O)[C@H]([C@@H](C)O)N(C)C(=O)[C@H]2CCCN2C(=O)[C@H](CC(C)C)NC(=O)[C@H]([C@@H](C)O)N(C)C1=O	1.2	> 1000	–
CC(C)C[C@@H]1NC(=O)[C@@H]2CCCN2C(=O)[C@H]2CCCN2C(=O)[C@H](CC(C)C)NC(=O)[C@H](C)N(C)C(=O)[C@H](CC(C)C)NC(=O)[C@@H]2CCCN2C(=O)[C@H]2CCCN2C(=O)[C@H](CC(C)C)NC(=O)[C@H](C)N(C)C1=O	1.6	220 (≈ 222 µg/mL)	4.3
CC(C)C[C@@H]1NC(=O)[C@H](C)N(C)C(=O)[C@H]2CCCN2C(=O)[C@H](CC(C)C)NC(=O)[C@H]([C@@H](C)O)N(C)C(=O)[C@H](CC(C)C)NC(=O)[C@H](C)N(C)C(=O)[C@H]2CCCN2C(=O)[C@H](CC(C)C)NC(=O)[C@H]([C@@H](C)O)N(C)C1=O	1	445 (≈ 466 µg/mL)	–
CC(C)C[C@@H]1NC(=O)[C@H](C(C)C)N(C)C(=O)[C@H]2CCCN2C(=O)[C@H](CC(C)C)NC(=O)[C@H](C)N(C)C(=O)[C@H](CC(C)C)NC(=O)[C@H](C(C)C)N(C)C(=O)[C@H]2CCCN2C(=O)[C@H](CC(C)C)NC(=O)[C@H](C)N(C)C1=O	3.8	57 (≈ 59.5 µg/mL)	5.1
CC(C)C[C@@H]1NC(=O)[C@H]([C@@H](C)O)N(C)C(=O)[C@H]2CCCN2C(=O)[C@H](CC(C)C)NC(=O)[C@H](C)N(C)C(=O)[C@H](CC(C)C)NC(=O)[C@H](Cc2ccccc2)N(C)C(=O)[C@H]2CCCN2C(=O)[C@H](CC(C)C)NC(=O)[C@H](C)N(C)C1=O	3.7	65 (≈ 71.1 µg/mL)	5.7
CC(C)C[C@@H]1NC(=O)[C@H](Cc2ccccc2)N(C)C(=O)[C@H]2CCCN2C(=O)[C@H](CC(C)C)NC(=O)[C@H](C)N(C)C(=O)[C@H]([C@@H](C)O)NC(=O)[C@H](Cc2ccccc2)N(C)C(=O)[C@H]2CCCN2C(=O)[C@H](CC(C)C)NC(=O)[C@H](C)N(C)C1=O	4	15 (≈ 16.9 µg/mL)	5.4
CC(C)C[C@@H]1NC(=O)[C@H](C)N(C)C(=O)[C@H](CC(C)C)NC(=O)[C@H](C)N(C)C(=O)[C@@H](C)N(C)C(=O)[C@H](CC(C)C)NC(=O)[C@H](C)N(C)C(=O)[C@H](CC(C)C)NC(=O)[C@H](C)N(C)C(=O)[C@@H](C)N(C)C1=O (cyclo(L[NMeA]L[dNMeA][NMeA]L[NMeA]L[dNMeA][NMeA]))	2.7	477 (≈ 459 µg/mL)	4.6
CC(C)C[C@@H]1NC(=O)[C@H](Cc2ccccc2)N(C)C(=O)[C@H]2CCCN2C(=O)[C@H](CC(C)C)NC(=O)[C@H](C)N(C)C(=O)[C@H](CC(C)C)NC(=O)[C@H](Cc2ccccc2)N(C)C(=O)[C@H]2CCCN2C(=O)[C@H](CC(C)C)NC(=O)[C@H](C)N(C)C1=O (cyclo(L[NMeA]L[dP][NMeF]L[NMeA]L[dP][NMeF]))	> 3.5	4 (≈ 4.56 µg/mL)	> 5.7
CC(C)C[C@@H]1NC(=O)[C@H](C)N(C)C(=O)[C@H](CC(C)C)NC(=O)[C@H](Cc2ccccc2)N(C)C(=O)[C@@H](C)N(C)C(=O)[C@H](CC(C)C)NC(=O)[C@H](C)N(C)C(=O)[C@H](CC(C)C)NC(=O)[C@H](Cc2ccccc2)N(C)C(=O)[C@@H](C)N(C)C1=O (cyclo(L[NMeA]L[dNMeA][NMeF]L[NMeA]L[dNMeA][NMeF]))	5.1	4 (≈ 4.46 µg/mL)	–
CC(C)C[C@@H]1NC(=O)[C@H]([C@@H](C)O)N(C)C(=O)[C@@H]2C[C@@H](O)CN2C(=O)[C@H](CC(C)C)NC(=O)[C@H](C)N(C)C(=O)[C@H](CC(C)C)NC(=O)[C@H](Cc2ccccc2)N(C)C(=O)[C@@H]2C[C@@H](O)CN2C(=O)[C@H](CC(C)C)NC(=O)[C@H](C)N(C)C1=O	-0.6	320 (≈ 360 µg/mL)	4.7
CC(C)C[C@@H]1NC(=O)[C@H](C)N(C)C(=O)[C@H](CC(C)C)NC(=O)[C@@H]2CCCN2C(=O)CN(C)C(=O)[C@H](CC(C)C)NC(=O)[C@H](C)N(C)C(=O)[C@H](CC(C)C)NC(=O)[C@@H]2CCCN2C(=O)CN(C)C1=O (cyclo(L[NMeA]L[Sar]PL[NMeA]L[Sar]P))	0.3	> 1000	–
CC(C)C[C@@H]1NC(=O)[C@H](Cc2ccccc2)N(C)C(=O)[C@H]2CCCN2C(=O)[C@H](CC(C)C)NC(=O)[C@H](C)N(C)C(=O)[C@H](CC(C)C)NC(=O)[C@H](Cc2ccccc2)N(C)C(=O)[C@H]2CCCN2C(=O)[C@H]([C@@H](C)O)NC(=O)[C@H](C)N(C)C1=O	3.6	20 (≈ 22.5 µg/mL)	5.1
CC(C)C[C@@H]1NC(=O)[C@H](C(C)C)N(C)C(=O)[C@H]2CCCN2C(=O)[C@H](CC(C)C)NC(=O)[C@@H](C)N(C)C(=O)[C@H](CC(C)C)NC(=O)[C@H](C(C)C)N(C)C(=O)[C@H](C)N(C)C(=O)[C@H](CC(C)C)NC(=O)[C@@H](C)N(C)C1=O	4	220 (≈ 227 µg/mL)	5.2
CC(C)C[C@@H]1NC(=O)[C@H](C)N(C)C(=O)[C@H]2CCCN2C(=O)[C@H](CC(C)C)NC(=O)[C@H](C)N(C)C(=O)[C@H](CC(C)C)NC(=O)[C@H](C)N(C)C(=O)[C@H]2CCCN2C(=O)[C@H](CC(C)C)NC(=O)[C@H](C)N(C)C1=O	2.5	794 (≈ 784 µg/mL)	4.7
CC(C)C[C@@H]1NC(=O)[C@H](C)N(C)C(=O)[C@H](CC(C)C)NC(=O)[C@H]2CCCN2C(=O)[C@@H]2CCCN2C(=O)[C@H](CC(C)C)NC(=O)[C@H](C)N(C)C(=O)[C@H](CC(C)C)NC(=O)[C@H](C(C)C)N(C)C(=O)[C@@H](C)N(C)C1=O	3.1	92 (≈ 93.4 µg/mL)	5.1
CC(C)C[C@@H]1NC(=O)[C@H](C)N(C)C(=O)[C@H]2CCCN2C(=O)[C@H](CC(C)C)NC(=O)[C@H](C)N(C)C(=O)[C@H](CC(C)C)NC(=O)[C@H](C)N(C)C(=O)[C@H]2CCCN2C(=O)[C@H]([C@@H](C)O)NC(=O)[C@H](C)N(C)C1=O	0.1	> 1000	2.6
CC(C)C[C@@H]1NC(=O)[C@H](Cc2ccccc2)N(C)C(=O)[C@H]2CCCN2C(=O)[C@H](CC(C)C)NC(=O)[C@H](C)N(C)C(=O)[C@H](CC(C)C)NC(=O)[C@H](Cc2ccccc2)N(C)C(=O)[C@H]2CCCN2C(=O)[C@H](CC(C)C)NC(=O)[C@H]([C@@H](C)O)N(C)C1=O	5	4 (≈ 4.68 µg/mL)	5.7
CC(C)C[C@@H]1NC(=O)[C@H]([C@@H](C)O)N(C)C(=O)[C@H]2CCCN2C(=O)[C@H](CC(C)C)NC(=O)[C@H](C)N(C)C(=O)[C@H](CC(C)C)NC(=O)[C@H]([C@@H](C)O)N(C)C(=O)[C@H]2CCCN2C(=O)[C@H](CC(C)C)NC(=O)[C@H](C)N(C)C1=O	1.2	884 (≈ 926 µg/mL)	3.8
CC(C)C[C@@H]1NC(=O)[C@H](C)N(C)C(=O)[C@H](CC(C)C)NC(=O)[C@H](C(C)C)N(C)C(=O)[C@@H](C)N(C)C(=O)[C@H](CC(C)C)NC(=O)[C@H](C)N(C)C(=O)[C@H](CC(C)C)NC(=O)[C@H](C(C)C)N(C)C(=O)[C@@H](C)N(C)C1=O	3.8	560 (≈ 571 µg/mL)	5.2
CC(C)C[C@@H]1NC(=O)[C@H]([C@@H](C)O)N(C)C(=O)[C@H]2CCCN2C(=O)[C@H](CC(C)C)NC(=O)[C@H]([C@@H](C)O)N(C)C(=O)[C@H](CC(C)C)NC(=O)[C@H](C)N(C)C(=O)[C@H]2CCCN2C(=O)[C@H](CC(C)C)NC(=O)[C@H]([C@@H](C)O)N(C)C1=O	0.4	827 (≈ 891 µg/mL)	–
CC(C)C[C@@H]1NC(=O)[C@H](C)N(C)C(=O)[C@H]2CCCN2C(=O)[C@H](CC(C)C)NC(=O)[C@H](C)N(C)C(=O)[C@H](CC(C)C)NC(=O)[C@H](C)N(C)C(=O)[C@@H]2C[C@@H](O)CN2C(=O)[C@H](CC(C)C)NC(=O)[C@H](C)N(C)C1=O	0.2	910 (≈ 913 µg/mL)	4.1
CC(C)C[C@@H]1NC(=O)[C@H]([C@@H](C)O)N(C)C(=O)[C@H]2CCCN2C(=O)[C@H](CC(C)C)NC(=O)[C@H]([C@@H](C)O)N(C)C(=O)[C@H](CC(C)C)NC(=O)[C@H]([C@@H](C)O)N(C)C(=O)[C@H]2CCCN2C(=O)[C@H](CC(C)C)NC(=O)[C@H]([C@@H](C)O)N(C)C1=O	-0.8	> 1000	–
